Experimental data taken from ChEMBL document CHEMBL5053549, “Discovery of Potent and Novel Dual PARP/BRD4 Inhibitors for Efficient Treatment of Pancreatic Cancer” (J Med Chem, 2021).
Calls of active or inactive are those of the source. The rule behind the calls is not given here.

How the values were obtained:
[1] = molecular target: Bromodomain-containing protein 4 (Homo sapiens, UniProt O60885); test: Inhibition of recombinant BRD4 BD2 (unknown origin) incubated for 120 mins by TR-FRET assay
SW1990 [2] = test: Inhibition of homologous recombinant repair in human SW1990 cells assessed as reduction in BRCA1 expression at 1 to 2 uM after 4 days by Q-PCR analysis; assay type: functional, cell-based; details: dose 1-2 µM, time 4.0 day
SW1990 [3] = test: Induction of autophagy in human SW1990 cells assessed as reduction in p62 expression at 1 to 2 uM incubated for 4 days by immunofluorescence assay; assay type: functional, cell-based; details: dose 1-2 µM, time 4.0 day
SW1990 [4] = test: Inhibition of colony formation in human SW1990 cells at 0.5 uM after 14 days in presence of 1.5 uM Olaparib by crystal violet staining based microscopic analysis; assay type: functional, cell-based; details: time 14.0 day
Mus musculus = test: Toxicity in BALB/c mouse xenografted with human SW1990 cells assessed as liver damage at 15 mg/kg, ip administered for 28 consecutive days by H and E staining based […] microscopic analysis; assay type: organism-based; details: in vivo, 672 h, time 28 day
SW1990 [5] = test: Inhibition of homologous recombinant repair in human SW1990 cells assessed as reduction in Olaparib-induced BRCA1 expression at 1 uM after 4 days in presence of Olaparib by Western blot analysis; assay type: functional, cell-based; details: time 4.0 day

Structure (SMILES) | IC50 [1] [nM] | inhibition (SW1990 [2]) | Activity (SW1990 [3]) | inhibition (SW1990 [4]) | Activity (Mus musculus) | inhibition (SW1990 [5])
CC[C@@H]1C(=O)N(C)c2cnc(N(C)c3ccc(-c4nc5c(C(N)=O)cccc5[nH]4)cc3OC)nc2N1C1CCCC1 | 157 | Active | Active |  |  | 
Cc1sc2c(c1C)C(c1ccc(Cl)cc1)=N[C@@H](CC(=O)OC(C)(C)C)c1nnc(C)n1-2 |  |  |  | Active | Non-Toxic | Active
